Experimental findings from patent EP0330283A1, “Novel 5,6-diphenyl-1,2-dihydro-3H-pyrrolo[1,2-a]pyrrole-1-carboxylic acid derivatives” (HISAMITSU PHARMACEUTICAL CO., INC., priority 1988, dated 1989) are described below.

The test system of data set [1] is carrageenin-induced paw edema. In words: Inhibitory actions on carrageenin-induced paw edema in rats. The following applies: Rattus norvegicus, po, 60 min before carrageenin, male Wistar rats, 3 hours after induction, vs control group, read-out: Inhibition rate; for inhibition in vivo at 30 mg/kg: 30 mg/kg orally; for inhibition in vivo at 15 mg/kg: 15 mg/kg orally. The data set is classed as in vivo. On the procedure: Using, as test animals, male rats of Wistar strain each weighing approximately 150g, 0.1 ml of 1% x-carrageenin was subcutaneously injected into the paw of each rat to induce the reaction. Since then, the volume of paw edema was measured with the lapse of time. Each compound indicated in the following Table was orally administered to the rats 60 minutes before the induction of the reaction. As shown in the following Table, the results were expressed in terms of inhibition rate in comparison with those in control group 3 hours after the induction of the reaction.
A general note: Carrageenan injected into the paw causes an acute inflammation.

In data set [2] the test system is writhing induced by acetic acid. Briefly: Inhibitory actions on the writhing induced by acetic acid in mice. It is filed as in vivo. Conditions: 30 mg/kg orally, 30 min before 0.6% acetic acid; male ddY mice; number of writhing vs control group. How it is done:
As test animals, there were provided groups consisting of 7-9 male ddY strain mice weighing 20-24g. Each of the compounds indicated in the following table was orally administered to the mice of one group. Thirty minutes later, 0.6% acetic acid was abdominally administered at a dose of 0.1ml/10g. Counting of the number of writhing was started 5 minutes later than the administration of the acetic acid and continued for 10 minutes. The inhibition rates were determined by comparing the number of writhing of the test group with that of the control group and were shown in the following Table.
On the technique in general: In writhing tests, fewer writhes than in controls are read as antinociception.

Data set [3] deals with arachidonic acid aggregation. Briefly: Inhibitory actions on blood platelet aggregation induced by arachidonic acid (Born's nephelometry, platelet rich plasma). The data set is classed as cell-based. The following applies: arachidonic acid (350µM), rabbit PRP; for inhibition at 3 µM / inhibition at 10 µM / inhibition at 30 µM: Oryctolagus cuniculus, Platelet, read-out: Inhibiting rate. On the procedure: (§1) Nine (9) ml of blood were drawn from the concha artery of a rabbit into a syringe containing therein 1 ml of a 3.2% solution of sodium citrate, after which the whole mass was centrifuged at 1100 rpm for 10 minutes to collect platelet rich plasma (PRP). The blood from which the PRP had been collected was again centrifuged at 3000 rpm for 5 minutes to collect platelet poor plasma (PPP). The PRP was adjusted to have 500,000/µl of platelets (thrombocytes) by the use of the PPP.
(§2) Four hundred and forty-five (445)µl of the thus adjusted PRP were introduced into a cuvette, warmed to 37° C for 5 minutes, incorporated with 5µl of a solution of each of the test compounds, further warmed for two minutes and then incorporated with 50µl of collagen (10µg/ml) or 50µl of arachidonic acid (350µM) thereby to induce platelet aggregation. The platelet aggregation was measured in accordance with the Born's nephelometry by the use of an Aggregometer produced by Sysmex Co.

The test system of a further data set is collagen aggregation. In words: Inhibitory actions on blood platelet aggregation induced by collagen (Born's nephelometry, platelet rich plasma). It is filed as cell-based. The following applies: Oryctolagus cuniculus, collagen (10µg/ml), rabbit PRP, read-out: Inhibiting rate; for inhibition at 10 µM: final concentration 10 μM; for inhibition at 30 µM: final concentration 30 μM. On the procedure: as §1, §2

The next data set has as its system gastric mucous damage. Briefly: Gastric mucous damage test in rats. Conditions: 10 mg/kg orally after fasting for 18 hours; male Wistar rats; stomachs observed 3.5 hours later. The data set is classed as in vivo. On the procedure:
Using, as test animals, male rats of Wistar strain each weighing approximately 160g, the compounds of Examples 6 and 40 as well as indomethacin were each orally administered to the rats at the dose indicated in the following Table after their fasting for 18 hours. Three and a half (3.5) hours later, the rats were dissected to remove the stomachs therefrom. 10ml of a 70% ethanol were injected into the stomachs to fix them, and the stomachs were cut and washed with water and then visually observed to find whether ulcers were formed therein.

Take `CC(C)OC(=O)C1CCn2c(-c3ccc(F)cc3)c(-c3ccc(F)cc3)c(C(=O)O)c21` (racemic) [Example 25]: the inhibition in vivo at 30 mg/kg in data set [1] came out at 30.1%. Further, in data set [2], the Inhibition rate was 49.1%.

Regarding `O=C(O)C1CCn2c1cc(-c1ccc(F)cc1)c2-c1ccc(F)cc1` (racemic) [Example 38], in data set [1], the inhibition in vivo at 30 mg/kg was 47.9%.

Take `O=C(C1CCn2c1cc(-c1ccc(Cl)cc1)c2-c1ccc(Cl)cc1)N1CCOCC1` (racemic) [Example 61]: the inhibition at 3 µM in data set [3] (final concentration 3 µM) was found to be 10.1%. Also, the inhibition at 10 µM in data set [3] (final concentration 10 µM) came to 89.4%. Moreover, the inhibition at 30 µM in data set [3] (final concentration 30 µM) came out at 91.4%.

For `O=C(Nc1ccccn1)C1CCn2c1cc(-c1ccc(Cl)cc1)c2-c1ccc(Cl)cc1` (racemic) [Example 46], in the data set on collagen aggregation, the inhibition at 10 µM was 64%. In addition, the inhibition in vivo at 30 mg/kg in data set [1] came out at 39.4%.

Take `COc1ccc(-c2cc3n(c2-c2ccc(OC)cc2)CCC3C(=O)O)cc1` (racemic) [Example 39]: the inhibition at 30 µM in the data set with collagen aggregation came out at 61.7%. In data set [1], the inhibition in vivo at 15 mg/kg came out at 34.7%.

With `O=C(O)C1CCn2c1cc(-c1ccc(Cl)cc1)c2-c1ccc(Cl)cc1` (stereo not drawn) [Example 6, 5,6-bis(p-chlorophenyl)-1,2-dihydro-3H-pyrrolo[1,2-a]pyrrole-1-carboxylic acid], in data set [1], the inhibition in vivo at 30 mg/kg stood at 52.3%. Besides, in data set [2], the Inhibition rate amounted to 81.3%.

For the molecule `O=C(NCCCN1CCOCC1)C1CCn2c1cc(-c1ccc(Cl)cc1)c2-c1ccc(Cl)cc1` (racemic) [Example 57], the inhibition at 10 µM in the data set on collagen aggregation was determined as 89.6%. Also, in data set [1], the inhibition in vivo at 30 mg/kg worked out at 31.9%.

Consider `O=C(O)c1c(-c2ccc(Cl)cc2)c(-c2ccc(Cl)cc2)n2c1C(C(=O)O)CC2` (stereo not drawn) [Example 3, 5,6-bis(p-chlorophenyl)-1,2-dihydro-3H-pyrrolo[1,2-a]-pyrrole-1,7-dicarboxylic acid], for which the inhibition in vivo at 30 mg/kg in data set [1] stood at 44.7%. In data set [2], this molecule came in with an Inhibition rate of 71.5%.

Take `O=C(O)c1c(-c2ccc(F)cc2)c(-c2ccc(F)cc2)n2c1C(C(=O)O)CC2` (racemic) [Example 17]: the inhibition in vivo at 30 mg/kg in data set [1] came to 42.9%. This molecule came in with an Inhibition rate in data set [2] of 78.4%.

Turning to `CC(C)OC(=O)C1CCn2c(-c3ccc(Cl)cc3)c(-c3ccc(Cl)cc3)c(C(=O)O)c21` (racemic) [Example 4, 5,6-bis(p-chlorophenyl)-1,2-dihydro-3H-pyrrolo[1,2-a]pyrrole-1-isopropyl carboxylate ester-7-carboxylic acid], the inhibition in vivo at 30 mg/kg in data set [1] is 31.2%. In data set [2], this molecule yielded an Inhibition rate of 56.4%.

As to `O=C(NC1CCCCC1)C1CCn2c1cc(-c1ccc(Cl)cc1)c2-c1ccc(Cl)cc1` (racemic) [Example 54], the inhibition at 3 µM in data set [3] (final concentration 3 µM) turned out to be 93.5%. For the same molecule, the inhibition at 10 µM in data set [3] (final concentration 10 µM) was determined as 93.5%; with collagen aggregation it was 79.5%. Also, the inhibition at 30 µM in data set [3] (final concentration 30 µM) is 91.9%. Besides, the inhibition in vivo at 30 mg/kg in data set [1] came to 40.2%.

Regarding `CN1CCN(NC(=O)C2CCn3c2cc(-c2ccc(Cl)cc2)c3-c2ccc(Cl)cc2)CC1` (racemic) [Example 59], the inhibition at 10 µM with collagen aggregation turned out to be 83.4%. In addition, the inhibition in vivo at 30 mg/kg in data set [1] was determined as 30.5%.

`O=C(Nc1ccc(Cl)cc1)C1CCn2c1cc(-c1ccc(Cl)cc1)c2-c1ccc(Cl)cc1` (racemic) [Example 41]: the inhibition at 3 µM in data set [3] (final concentration 3 µM) turned out to be 83.4%. The inhibition at 10 µM in data set [3] (final concentration 10 µM) was determined as 88.7%. For the same molecule, in data set [3] (final concentration 30 µM), the inhibition at 30 µM was found to be 89.4%.

Take `Cc1ccc(-c2cc3n(c2-c2ccc(C)cc2)CCC3C(=O)O)cc1` (racemic) [Example 37]: in the data set on collagen aggregation, the inhibition at 30 µM turned out to be 53.7%. Further, in data set [1], the inhibition in vivo at 15 mg/kg is 27.8%. Also, in data set [2], the Inhibition rate worked out at 45.4%.

Take `O=C(NCc1ccccc1)C1CCn2c1cc(-c1ccc(Cl)cc1)c2-c1ccc(Cl)cc1` (racemic) [Example 48]: in data set [3] (final concentration 3 µM), the inhibition at 3 µM came out at 14.3%. For the same molecule, the inhibition at 10 µM in data set [3] (final concentration 10 µM) is 86.5%. For the same molecule, the inhibition at 30 µM in data set [3] (final concentration 30 µM) turned out to be 91%.

Regarding `CCCCNC(=O)C1CCn2c1cc(-c1ccc(Cl)cc1)c2-c1ccc(Cl)cc1` (racemic) [Example 8, N-bytyl-5,6-bis(p-chlorophenyl)-1,2-dihydro-3H-pyrrolo[1,2-a]pyrrole-1-carboxylic acid amide], the Inhibiting rate in data set [3] (final concentration 3 µM) amounted to 92.5%; in data set [3] (final concentration 10 µM) it was 90.2%; in data set [3] (final concentration 30 µM), 92.5%.

`COc1ccc(-c2c(-c3ccc(Cl)cc3)cc3n2CCC3C(=O)O)cc1` (racemic) [Example 40]: the inhibition at 30 µM with collagen aggregation was found to be 63.8%. The inhibition in vivo at 30 mg/kg in data set [1] came out at 48.2%. In data set [2], this molecule yielded an Inhibition rate of 87.3%.

In the case of `COc1ccc2c(c1)c(CC(=O)O)c(C)n2C(=O)c1ccc(Cl)cc1` [Indomethacin], the Ulcer formation in the data set with gastric mucous damage is given as 7/7.

For `O=C(Nc1ccccc1)C1CCn2c1cc(-c1ccc(Cl)cc1)c2-c1ccc(Cl)cc1` (racemic) [Example 7, N-phenyl-5,6-bis(p-chlorophenyl)-1,2-dihydro-3H-pyrrolo[1,2-a]pyrrole-1-carboxylic acid amide], the inhibition at 10 µM in the data set with collagen aggregation was determined as 78%. Also, the inhibition in vivo at 30 mg/kg in data set [1] came out at 37.4%.
